Test results taken from US12589025B2, “Intraocular devices, systems, and methods” (Sight Sciences, Inc., priority 2021, dated 2026).

Parameters: species or system Yucatan pigs
Conditions: pig, in vivo
From the text: Poly(lactic-co-glycolic acid) (PLGA) implants comprising bimatoprost were implanted into the eyes of 3 month old Yucatan pigs (6 pigs total). Prior to delivering the implant to either the sclera (fully intrascleral; “intrascleral arm”) or partially in the limbus (one end residing in the limbus, one end residing in the sclera; “limbal arm”), the pigs were placed under general anesthesia, and a lid speculum was inserted. Intraocular pressure was checked, and corneal thickness was checked in 4 quadrants, and centrally, using ultrasonic corneal pachymetry. The lid speculum was then removed.
In each of the 6 pigs, the right eye received one implant, and the left eye received 2 implants. In order to accomplish this, betadine drops were placed onto the left eyes of each pig and an eyelid speculum is inserted. A surgical operating microscope was positioned to visualize the implantation. Each eye was infraducted with a traction suture. A small conjunctival peritomy was created, and the sclera was marked with gentian violet-tipped calipers 2 mm posterior to the limbus. 10-0 nylon marking sutures were then placed 3-4 mm posterior to the limbus. A 27 G needle on a TB syringe was used to preform a tunnel for implantation toward the anterior chamber (group 1) or across the sclera (group 2). The implant was then deployed into the preformed tunnel, and the traction suture was released. Polymyxin-trimethoprim and tobramycin-dexamethasone drops were then placed in each eye, and the speculum was removed. The procedure was then repeated with two implants in each pig's […] eye.
At month 1, the pigs were examined, and one pig from each group was euthanized and the eyes were removed and placed in formalin for pathology. Aqueous samples from each of the 6 pigs were collected and analyzed for the presence of bimatoprost and Bimatoprost Acid (a metabolite of bimatoprost). At weeks 3, 10, and 20, the remaining pigs in each group were examined for redness, inflammation, eye rubbing, miosis, and squinting, as above.
At month 3, the remaining pigs were examined and aqueous samples collected (as above), and one of the remaining pigs from each group was euthanized (as above) for pathology.
The histopathology of the eyes is evaluated, as is the concentration of bimatoprost, and metabolites thereof, in the anterior chambers. The concentrations of bimatoprost and the bimatoprost acid metabolite in the anterior chamber of each pig's eyes are shown in FIGS. 24A-24D, at the time points described above. FIG. 24A and FIG. 24B show the concentrations of bimatoprost and the bimatoprost acid metabolite, respectively, for the three pigs (A1, A2, and A6) implanted with the intrascleral implant. […]

| Bimatoprost Acid concentration, limbal arm compared to intrascleral arm | presence of Bimatoprost Acid (metabolite of bimatoprost) in aqueous samples | presence of bimatoprost in the aqueous humor | Compound | bimatoprost aqueous levels, limbal arm compared to intrascleral arm |
| --- | --- | --- | --- | --- |
| higher concentration in the limbal arm | detectable |  | O=C(O)CCC/C=C\C[C@@H]1[C@@H](/C=C/[C@@H](O)CCc2ccccc2)[C@H](O)C[C@@H]1O [Bimatoprost Acid] |  |
|  |  | detectable | CCNC(=O)CCC/C=C\C[C@@H]1[C@@H](/C=C/[C@@H](O)CCc2ccccc2)[C@H](O)C[C@@H]1O [bimatoprost] | both higher and more sustained aqueous levels in the limbal arm |
